Reference: article PMC8500670, “A selective WDR5 degrader inhibits acute myeloid leukemia in patient-derived mouse models” (Science translational medicine, 2021)
Where two headings read alike, the source gives them in different places.

Key:
Test in all cases: biochemical
JNK1α1(h) = target: T1, JNK1α1(h) (Homo sapiens, UniProt P45983); set-up: kinase selectivity panel, activity as per cent of control, single concentration in duplicate; details: read-out: % of control remaining
T1 construct: gene MAPK8; isoform alpha1
T1 sequence (P45983 whole entry, canonical isoform): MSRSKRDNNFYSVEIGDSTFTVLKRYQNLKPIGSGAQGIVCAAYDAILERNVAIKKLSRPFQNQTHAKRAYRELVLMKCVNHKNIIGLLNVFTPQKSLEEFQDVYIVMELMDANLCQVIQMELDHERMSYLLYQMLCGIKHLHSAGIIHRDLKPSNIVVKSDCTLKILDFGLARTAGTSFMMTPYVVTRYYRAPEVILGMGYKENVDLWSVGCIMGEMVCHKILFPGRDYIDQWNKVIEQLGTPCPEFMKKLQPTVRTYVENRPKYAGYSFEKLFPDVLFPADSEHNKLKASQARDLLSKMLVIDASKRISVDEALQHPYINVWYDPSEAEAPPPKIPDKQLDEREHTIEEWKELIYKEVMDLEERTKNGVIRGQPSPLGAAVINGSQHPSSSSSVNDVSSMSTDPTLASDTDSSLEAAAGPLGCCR
Protocol: (§1) We next assessed selectivity of MS67 against 22 protein methyltransferases (table S2) and a broad panel of common drug targets including 45 kinases (table S3) and 44 G protein–coupled receptors (GPCR), ion channels, and transporters (table S4). […] We subsequently determined that MS67 had moderate binding affinity (Ki = 1.0 ± 0.8 μM) to Sigma 2 receptor (fig. S10).

MARK1(h) = MARK1(h) (Homo sapiens, UniProt Q9P0L2); set-up: kinase selectivity panel, activity as per cent of control, single concentration in duplicate; details: read-out: % of control remaining
Protocol: as §1

PKCβII(h) = target: T2, PKCβII(h) (Homo sapiens, UniProt P05771); set-up: kinase selectivity panel, activity as per cent of control, single concentration in duplicate; details: read-out: % of control remaining
T2 construct: gene PRKCB; isoform betaII
Protocol: as §1

CHK2(h) = target: T3, CHK2(h) (Homo sapiens, UniProt O96017); set-up: kinase selectivity panel, activity as per cent of control, single concentration in duplicate; details: read-out: % of control remaining
T3 construct: gene CHEK2
Protocol: as §1

EGFR(h) = EGFR(h) (Homo sapiens, UniProt P00533); set-up: kinase selectivity panel, activity as per cent of control, single concentration in duplicate; details: read-out: % of control remaining
Protocol: as §1

Aurora-A(h) = target: T4, Aurora-A(h) (Homo sapiens, UniProt O14965); set-up: kinase selectivity panel, activity as per cent of control, single concentration in duplicate; details: read-out: % of control remaining
T4 construct: gene AURKA
Protocol: as §1

IKKα(h) = target: T5, IKKα(h) (Homo sapiens, UniProt O15111); set-up: kinase selectivity panel, activity as per cent of control, single concentration in duplicate; details: read-out: % of control remaining
T5 construct: gene CHUK
Protocol: as §1

Met(h) = Met(h) (Homo sapiens, UniProt P08581); set-up: kinase selectivity panel, activity as per cent of control, single concentration in duplicate; details: read-out: % of control remaining
Protocol: as §1

c-RAF(h) = target: T6, c-RAF(h) (Homo sapiens, UniProt P04049); set-up: kinase selectivity panel, activity as per cent of control, single concentration in duplicate; details: read-out: % of control remaining
T6 construct: gene RAF1
Protocol: as §1

FGFR2(h) = FGFR2(h) (Homo sapiens, UniProt P21802); set-up: kinase selectivity panel, activity as per cent of control, single concentration in duplicate; details: read-out: % of control remaining
FGFR2(h), sequence (P21802 whole entry): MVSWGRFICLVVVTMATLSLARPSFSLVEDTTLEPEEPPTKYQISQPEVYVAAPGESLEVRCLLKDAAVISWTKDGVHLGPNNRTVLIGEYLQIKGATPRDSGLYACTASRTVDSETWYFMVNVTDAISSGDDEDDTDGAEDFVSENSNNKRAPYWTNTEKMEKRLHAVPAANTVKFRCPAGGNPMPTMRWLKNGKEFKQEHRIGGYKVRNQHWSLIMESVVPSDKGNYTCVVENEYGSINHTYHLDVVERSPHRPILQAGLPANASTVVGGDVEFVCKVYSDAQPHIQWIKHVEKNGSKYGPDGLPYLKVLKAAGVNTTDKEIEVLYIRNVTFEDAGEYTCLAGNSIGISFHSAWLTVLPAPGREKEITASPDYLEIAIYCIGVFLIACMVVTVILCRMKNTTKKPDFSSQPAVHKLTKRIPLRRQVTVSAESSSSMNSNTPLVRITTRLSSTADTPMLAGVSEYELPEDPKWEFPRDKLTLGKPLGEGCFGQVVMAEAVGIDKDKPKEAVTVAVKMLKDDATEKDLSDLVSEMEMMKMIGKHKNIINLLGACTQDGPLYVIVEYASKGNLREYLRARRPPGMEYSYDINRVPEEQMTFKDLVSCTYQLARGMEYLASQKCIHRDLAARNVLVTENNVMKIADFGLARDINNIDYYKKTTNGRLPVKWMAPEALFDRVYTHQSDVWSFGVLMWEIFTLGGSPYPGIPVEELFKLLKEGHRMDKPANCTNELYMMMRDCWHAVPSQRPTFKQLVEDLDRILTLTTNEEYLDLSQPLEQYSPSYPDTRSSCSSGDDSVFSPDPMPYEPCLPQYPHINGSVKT
Protocol: as §1

CDK2/cyclinA(h) = CDK2/cyclinA(h) (Homo sapiens, UniProt P24941); set-up: kinase selectivity panel, activity as per cent of control, single concentration in duplicate; details: read-out: % of control remaining
Protocol: as §1

PAK2(h) = PAK2(h) (Homo sapiens, UniProt Q13177); set-up: kinase selectivity panel, activity as per cent of control, single concentration in duplicate; details: read-out: % of control remaining
Protocol: as §1

TrkA(h) = target: T7, TrkA(h) (Homo sapiens, UniProt P04629); set-up: kinase selectivity panel, activity as per cent of control, single concentration in duplicate; details: read-out: % of control remaining
T7 construct: gene NTRK1
Protocol: as §1

Lck(h) = Lck(h) (Homo sapiens, UniProt P06239); set-up: kinase selectivity panel, activity as per cent of control, single concentration in duplicate; details: read-out: % of control remaining
Protocol: as §1

MAP4K4(h) = MAP4K4(h) (Homo sapiens, UniProt O95819); set-up: kinase selectivity panel, activity as per cent of control, single concentration in duplicate; details: read-out: % of control remaining
Protocol: as §1

CDK1/cyclinB = CDK1/cyclinB (Homo sapiens, UniProt P06493); set-up: kinase selectivity panel, single concentration, duplicate
Protocol: as §1

MAPK2 = target: T8, MAPK2 (Homo sapiens, UniProt P28482); set-up: kinase selectivity panel, single concentration, duplicate
T8 construct: gene MAPK1
Protocol: as §1

EGFR = EGFR (Homo sapiens, UniProt P00533); set-up: kinase selectivity panel, single concentration, duplicate
Protocol: as §1

JNK1α1 = target: T9, JNK1α1 (Homo sapiens, UniProt P45983); set-up: kinase selectivity panel, single concentration, duplicate
T9 construct: gene MAPK8; isoform alpha1
T9 sequence (P45983 whole entry, canonical isoform): as the sequence (P45983 whole entry, canonical isoform) above
Protocol: as §1

MAPKAP-K2 = target: T10, MAPKAP-K2 (Homo sapiens, UniProt P49137); set-up: kinase selectivity panel, single concentration, duplicate
T10 construct: gene MAPKAPK2
T10 sequence (P49137 whole entry): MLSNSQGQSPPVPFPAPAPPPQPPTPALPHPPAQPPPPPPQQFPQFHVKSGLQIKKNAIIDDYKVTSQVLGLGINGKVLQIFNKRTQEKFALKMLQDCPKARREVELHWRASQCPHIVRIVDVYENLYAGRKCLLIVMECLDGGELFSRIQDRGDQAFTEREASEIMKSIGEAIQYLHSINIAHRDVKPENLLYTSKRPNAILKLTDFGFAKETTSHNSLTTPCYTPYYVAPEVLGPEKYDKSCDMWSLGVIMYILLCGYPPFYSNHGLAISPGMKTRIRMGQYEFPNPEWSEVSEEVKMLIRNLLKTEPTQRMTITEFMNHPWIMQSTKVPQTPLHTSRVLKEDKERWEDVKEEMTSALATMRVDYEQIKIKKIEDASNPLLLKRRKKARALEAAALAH
Protocol: as §1

JAK3 = JAK3 (Homo sapiens, UniProt P52333); set-up: kinase selectivity panel, single concentration, duplicate
Protocol: as §1

PKCβII = target: T11, PKCβII (Homo sapiens, UniProt P05771); set-up: kinase selectivity panel, single concentration, duplicate
T11 construct: gene PRKCB; isoform beta II
Protocol: as §1

MARK1 = MARK1 (Homo sapiens, UniProt Q9P0L2); set-up: kinase selectivity panel, single concentration, duplicate
Protocol: as §1

FGFR1 = FGFR1 (Homo sapiens, UniProt P11362); set-up: kinase selectivity panel, single concentration, duplicate
Protocol: as §1

GSK3β = target: T12, GSK3β (Homo sapiens, UniProt P49841); set-up: kinase selectivity panel, single concentration, duplicate
T12 construct: gene GSK3B
Protocol: as §1

SET1b Complex = SET1b Complex (Homo sapiens, UniProt Q9UPS6); set-up: gene SETD1B; Complex; protein methyltransferase selectivity panel, enzyme activity relative to DMSO controls, single concentration in duplicate; details: Substrate:=Core Histone
SET1b Complex, sequence (Q15291 whole entry): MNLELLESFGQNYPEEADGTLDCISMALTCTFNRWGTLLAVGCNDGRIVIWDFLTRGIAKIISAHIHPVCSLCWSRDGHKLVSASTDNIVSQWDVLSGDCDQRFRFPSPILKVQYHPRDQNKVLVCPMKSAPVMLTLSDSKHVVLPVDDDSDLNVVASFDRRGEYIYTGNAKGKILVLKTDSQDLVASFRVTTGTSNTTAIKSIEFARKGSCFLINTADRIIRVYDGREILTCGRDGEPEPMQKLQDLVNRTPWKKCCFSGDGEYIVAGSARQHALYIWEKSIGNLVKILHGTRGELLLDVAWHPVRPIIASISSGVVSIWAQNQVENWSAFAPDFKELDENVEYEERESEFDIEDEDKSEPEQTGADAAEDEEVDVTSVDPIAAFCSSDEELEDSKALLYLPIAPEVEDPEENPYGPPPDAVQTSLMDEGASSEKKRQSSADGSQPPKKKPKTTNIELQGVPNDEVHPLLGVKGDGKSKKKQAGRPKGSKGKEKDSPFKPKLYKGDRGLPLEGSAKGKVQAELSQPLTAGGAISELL
SET1b Complex, sequence (Q9UPS6 whole entry): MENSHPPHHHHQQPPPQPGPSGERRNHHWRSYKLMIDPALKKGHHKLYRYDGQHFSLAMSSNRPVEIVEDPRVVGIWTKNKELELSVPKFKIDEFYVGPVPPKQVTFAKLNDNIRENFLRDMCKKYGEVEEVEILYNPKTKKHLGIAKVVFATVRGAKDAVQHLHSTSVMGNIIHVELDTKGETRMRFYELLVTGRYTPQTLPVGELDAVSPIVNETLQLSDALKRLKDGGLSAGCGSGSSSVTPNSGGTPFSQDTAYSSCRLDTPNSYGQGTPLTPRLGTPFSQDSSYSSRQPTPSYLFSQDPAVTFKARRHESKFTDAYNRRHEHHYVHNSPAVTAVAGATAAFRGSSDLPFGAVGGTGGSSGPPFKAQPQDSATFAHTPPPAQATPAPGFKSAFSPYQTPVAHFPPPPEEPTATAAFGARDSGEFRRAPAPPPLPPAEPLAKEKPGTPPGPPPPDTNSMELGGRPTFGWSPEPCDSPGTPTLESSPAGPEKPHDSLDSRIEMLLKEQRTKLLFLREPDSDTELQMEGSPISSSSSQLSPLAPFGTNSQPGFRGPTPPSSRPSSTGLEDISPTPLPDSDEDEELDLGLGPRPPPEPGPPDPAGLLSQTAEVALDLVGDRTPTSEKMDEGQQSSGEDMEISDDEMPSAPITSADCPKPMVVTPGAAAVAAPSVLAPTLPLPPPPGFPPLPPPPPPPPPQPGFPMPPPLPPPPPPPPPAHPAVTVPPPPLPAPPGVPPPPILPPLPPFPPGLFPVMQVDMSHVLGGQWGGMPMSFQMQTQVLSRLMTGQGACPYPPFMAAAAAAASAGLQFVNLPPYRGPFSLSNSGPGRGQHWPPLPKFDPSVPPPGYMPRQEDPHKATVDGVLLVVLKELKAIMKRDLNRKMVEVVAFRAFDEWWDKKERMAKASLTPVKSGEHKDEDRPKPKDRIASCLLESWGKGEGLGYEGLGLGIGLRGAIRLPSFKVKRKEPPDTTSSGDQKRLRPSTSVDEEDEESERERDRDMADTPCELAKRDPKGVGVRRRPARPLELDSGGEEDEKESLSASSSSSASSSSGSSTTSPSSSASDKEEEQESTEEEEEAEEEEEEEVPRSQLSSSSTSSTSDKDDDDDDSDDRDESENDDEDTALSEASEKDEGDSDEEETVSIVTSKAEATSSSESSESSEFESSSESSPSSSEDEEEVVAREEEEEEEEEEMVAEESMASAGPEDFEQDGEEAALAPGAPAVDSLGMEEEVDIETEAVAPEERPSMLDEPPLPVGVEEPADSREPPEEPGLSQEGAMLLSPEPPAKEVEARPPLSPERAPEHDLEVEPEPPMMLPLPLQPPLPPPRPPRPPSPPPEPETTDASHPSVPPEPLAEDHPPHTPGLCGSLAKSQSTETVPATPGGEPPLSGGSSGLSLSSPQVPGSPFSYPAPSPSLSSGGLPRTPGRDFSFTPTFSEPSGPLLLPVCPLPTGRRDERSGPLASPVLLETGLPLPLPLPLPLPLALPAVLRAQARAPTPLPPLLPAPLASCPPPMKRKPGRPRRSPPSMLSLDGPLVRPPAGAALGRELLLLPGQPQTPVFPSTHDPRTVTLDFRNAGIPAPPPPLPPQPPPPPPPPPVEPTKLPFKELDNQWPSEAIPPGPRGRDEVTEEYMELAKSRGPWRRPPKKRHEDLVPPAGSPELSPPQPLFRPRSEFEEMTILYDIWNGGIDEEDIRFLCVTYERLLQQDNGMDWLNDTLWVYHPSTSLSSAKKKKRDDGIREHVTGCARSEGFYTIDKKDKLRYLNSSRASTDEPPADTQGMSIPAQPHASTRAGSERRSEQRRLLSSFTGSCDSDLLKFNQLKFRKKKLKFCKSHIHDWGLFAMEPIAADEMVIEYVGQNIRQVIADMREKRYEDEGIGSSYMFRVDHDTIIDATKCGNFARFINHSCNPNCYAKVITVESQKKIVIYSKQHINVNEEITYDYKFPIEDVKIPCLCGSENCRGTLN
SET1b Complex, sequence (Q9C005 whole entry, further chain): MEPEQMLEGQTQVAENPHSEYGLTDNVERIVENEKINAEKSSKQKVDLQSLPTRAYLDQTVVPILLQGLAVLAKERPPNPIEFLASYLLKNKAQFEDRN
SET1b Complex, sequence (Q9UBL3 whole entry, further chain): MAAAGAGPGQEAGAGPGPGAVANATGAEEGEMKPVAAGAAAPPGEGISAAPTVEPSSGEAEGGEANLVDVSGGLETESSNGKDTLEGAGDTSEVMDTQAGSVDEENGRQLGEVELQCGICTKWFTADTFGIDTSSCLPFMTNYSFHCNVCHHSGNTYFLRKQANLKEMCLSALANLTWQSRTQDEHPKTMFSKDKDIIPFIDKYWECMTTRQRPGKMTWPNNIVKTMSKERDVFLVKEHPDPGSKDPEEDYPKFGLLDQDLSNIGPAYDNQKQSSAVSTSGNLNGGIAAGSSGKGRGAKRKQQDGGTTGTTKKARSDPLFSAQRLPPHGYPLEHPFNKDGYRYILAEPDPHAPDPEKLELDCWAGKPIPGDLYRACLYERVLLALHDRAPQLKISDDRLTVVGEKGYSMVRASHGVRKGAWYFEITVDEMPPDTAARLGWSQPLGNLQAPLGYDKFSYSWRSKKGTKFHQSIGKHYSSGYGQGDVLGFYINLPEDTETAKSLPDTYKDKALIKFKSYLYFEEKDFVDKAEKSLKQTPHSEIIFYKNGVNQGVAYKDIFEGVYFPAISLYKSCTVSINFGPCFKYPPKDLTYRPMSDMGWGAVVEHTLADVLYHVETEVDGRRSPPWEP
Protocol: as §1

Cc1ncsc1-c1ccc([C@H](C)NC(=O)[C@@H]2C[C@@H](O)CN2C(=O)[C@@H](NC(=O)CNC(=O)c2ccc(F)c(-c3ccc(N4C[C@@H](C)N(C)[C@@H](C)C4)c(NC(=O)c4c[nH]c(=O)cc4C(F)(F)F)c3)c2)C(C)(C)C)cc1 [MS67]
remaining activity at 1 µM (JNK1α1(h)): 104%
remaining activity at 1 µM (MARK1(h)): 100%
remaining activity at 1 µM (PKCβII(h)): 112%
remaining activity at 1 µM (CHK2(h)): 97%
remaining activity at 1 µM (EGFR(h)): 101%
remaining activity at 1 µM (Aurora-A(h)): 108%
remaining activity at 1 µM (IKKα(h)): 96%
remaining activity at 1 µM (Met(h)): 88%
remaining activity at 1 µM (c-RAF(h)): 87%
remaining activity at 1 µM (FGFR2(h)): 84%
remaining activity at 1 µM (CDK2/cyclinA(h)): 91%
remaining activity at 1 µM (PAK2(h)): 89%
remaining activity at 1 µM (TrkA(h)): 94%
remaining activity at 1 µM (Lck(h)): 97%
remaining activity at 1 µM (MAP4K4(h)): 100%
inhibition at 1 µM (CDK1/cyclinB): < 10%
inhibition at 1 µM (MAPK2): < 10%
inhibition at 1 µM (EGFR): < 10%
inhibition at 1 µM (JNK1α1): < 10%
inhibition at 1 µM (MAPKAP-K2): < 10%
inhibition at 1 µM (JAK3): < 10%
inhibition at 1 µM (PKCβII): < 10%
inhibition at 1 µM (MARK1): < 10%
inhibition at 1 µM (FGFR1): < 10%
inhibition at 1 µM (GSK3β): < 10%
remaining activity at 10 µM (SET1b Complex; read-out: Enzyme % Activity (relative to DMSO controls) / MS67 / 10 / Data 1:): 94.9%
remaining activity at 10 µM (SET1b Complex; read-out: Enzyme % Activity (relative to DMSO controls) / MS67 / 10 / Data 2:): 92.1%
